Experimental findings from patent US20260256921A1, “BIFUNCTIONAL MOLECULES TO TARGET DEGRADATION OF TUMOR NECROSIS FACTOR” (Biohaven Therapeutics Ltd., priority 2023, published 2026) are described below.

For the test, the target named is T1, Biotinylated Human TNF-α Protein (active trimer) (Homo sapiens, UniProt P01375).
T1 construct: purchased ACROBiosystems TNA-H82E3
T1 sequence (P01375 77-233 limits assumed): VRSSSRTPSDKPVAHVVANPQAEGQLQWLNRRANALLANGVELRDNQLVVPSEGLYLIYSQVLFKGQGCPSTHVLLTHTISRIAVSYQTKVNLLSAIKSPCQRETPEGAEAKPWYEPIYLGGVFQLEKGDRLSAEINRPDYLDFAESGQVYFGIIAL
The experiment in a line: Octet (BLI) binding to TNF-α. The note with it: 1:1 binding model, N.B. = No Binding. The method, then: Protocol. The binding to IL-17A was measured by Bio-Layer Interferometry (BLI) using the Sartorius Octet 96e platform (Goettingen, Germany). The binding assay was performed using Streptavidin (SA) Dip and Read Biosensors (Sartorius Catalog #18-5019; Goettingen, Germany) in OptiPlate-96F, Black, 96-well, Pinch bar design, plates (Perkin Elmer Catalog #6005270; Waltham, MA, USA) with the following steps: (1) 60 seconds of baseline; (2) 600 seconds of loading with 50 nM TNF-α (Biotinylated Human TNF-α Protein, His, Avitag (active trimer); ACROBiosystems Catalog #TNA-H82E3; Newark, DE, USA); (3) 60 seconds of baseline; (4) 120 seconds of quenching with 50 μg/ml of Biocytin (Thermo Fisher Catalog #B1592; Waltham, MA, USA); (5) 60 seconds of baseline; (6) 180 seconds of association with a dilution series of ligand consisting of seven concentrations. The eighth tip in the column was run in Assay Buffer (Phosphate Buffered Saline (PBS; Gibco Catalog #10010; Pottstown, PA, USA)+0.05% Tween 20 (v/v) (Fisher BioReagents Catalog BP337-500; Pittsburgh, PA, USA)+0.1% BSA (w/v) (Rockland Catalog #BSA-50; Pottstown, PA, USA)) to serve as a reference sensor, the signal of which was subtracted from the sample sensors. (7) 180 seconds of dissociation in Assay Buffer.
Results. Data analysis was done using the Octet Data Analysis HT software (Sartorius, Goettingen, Germany). Processed data was globally fit to a 1:1 binding model for determination of the equilibrium dissociation constant (KD).
(In BLI a coated tip is dipped into the sample, and binding shifts an interference pattern.)
In the case of `CCC(=O)NC1COC(COCCOCCOCCOCCn2cc(COCC(COCc3cn(CCOCCOCCOCCOCC4OCC(NC(=O)CC)C(O)C4O)nn3)(COCc3cn(CCOCCOCCOCCOCC4OCC(NC(=O)CC)C(O)C4O)nn3)NC(=O)CNC(=O)CCOCCOCCC(=O)N3CCN(Cc4ccc(-c5c[nH]c6ccncc56)c(OCCc5ccc(-c6cccc7ccncc67)cc5)c4)CC3)nn2)C(O)C1O` (centres unmarked) [Compound 103], the “Octet Kd TNF-α” value is recorded as “N.B”.

Turning to `CCC(=O)NC1COC(COCCOCCOCCOCCn2cc(COCC(COCc3cn(CCOCCOCCOCCOCC4OCC(NC(=O)CC)C(O)C4O)nn3)(COCc3cn(CCOCCOCCOCCOCC4OCC(NC(=O)CC)C(O)C4O)nn3)NC(=O)CNC(=O)CCC(=O)N3CCN(Cc4ccc(-c5c[nH]c6ccncc56)c(OCCc5ccc(-c6cccc7ccncc67)cc5)c4)CC3)nn2)C(O)C1O` (centres unmarked) [Compound 104], the “Octet Kd TNF-α” value was “N.B”.

Turning to `CCC(=O)NC1COC(COCCOCCOCCOCCn2cc(COCCNC(=O)CNC(=O)CCOCCOCCOCCOCCOCCOCCC(=O)N3CCN(Cc4ccc(-c5c[nH]c6ccncc56)c(OCCc5ccc(-c6cccc7ccncc67)cc5)c4)CC3)nn2)C(O)C1O` (centres unmarked) [Compound 105], the “Octet Kd TNF-α” value is “N.B”.

As to `CCC(=O)N[C@H]1CO[C@H](COCCOCCOCCOCCn2cc(COCCNC(=O)CNC(=O)CCC(=O)N3CCN(Cc4ccc(-c5c[nH]c6ccncc56)c(OCCc5ccc(-c6cccc7ccncc67)cc5)c4)CC3)nn2)[C@H](O)[C@@H]1O` [Compound 106], the “Octet Kd TNF-α” value was “N.B”.

Consider `CCC(=O)N[C@H]1CO[C@H](COCCOCCOCCOCCn2cc(COCCNC(=O)CNC(=O)CCOCCOCCC(=O)N3CCN(Cc4ccc(-c5c[nH]c6ccncc56)c(OCCc5ccc(-c6cccc7ccncc67)cc5)c4)CC3)nn2)[C@H](O)[C@@H]1O` [Compound 107], for which the “Octet Kd TNF-α” value was “N.B”.
